Values of other authors as cited in patent US8097636B2, “Heterocyclic derivatives as modulators of ion channels” (Vertex Pharmaceuticals Incorporated, priority 2007, dated 2012).

Molecular target: NaV1.3 (Homo sapiens, UniProt Q9NY46)
Details: read-out: TTX IC50

Chain of NaV1.3 (Q9NY46 whole entry, looked up): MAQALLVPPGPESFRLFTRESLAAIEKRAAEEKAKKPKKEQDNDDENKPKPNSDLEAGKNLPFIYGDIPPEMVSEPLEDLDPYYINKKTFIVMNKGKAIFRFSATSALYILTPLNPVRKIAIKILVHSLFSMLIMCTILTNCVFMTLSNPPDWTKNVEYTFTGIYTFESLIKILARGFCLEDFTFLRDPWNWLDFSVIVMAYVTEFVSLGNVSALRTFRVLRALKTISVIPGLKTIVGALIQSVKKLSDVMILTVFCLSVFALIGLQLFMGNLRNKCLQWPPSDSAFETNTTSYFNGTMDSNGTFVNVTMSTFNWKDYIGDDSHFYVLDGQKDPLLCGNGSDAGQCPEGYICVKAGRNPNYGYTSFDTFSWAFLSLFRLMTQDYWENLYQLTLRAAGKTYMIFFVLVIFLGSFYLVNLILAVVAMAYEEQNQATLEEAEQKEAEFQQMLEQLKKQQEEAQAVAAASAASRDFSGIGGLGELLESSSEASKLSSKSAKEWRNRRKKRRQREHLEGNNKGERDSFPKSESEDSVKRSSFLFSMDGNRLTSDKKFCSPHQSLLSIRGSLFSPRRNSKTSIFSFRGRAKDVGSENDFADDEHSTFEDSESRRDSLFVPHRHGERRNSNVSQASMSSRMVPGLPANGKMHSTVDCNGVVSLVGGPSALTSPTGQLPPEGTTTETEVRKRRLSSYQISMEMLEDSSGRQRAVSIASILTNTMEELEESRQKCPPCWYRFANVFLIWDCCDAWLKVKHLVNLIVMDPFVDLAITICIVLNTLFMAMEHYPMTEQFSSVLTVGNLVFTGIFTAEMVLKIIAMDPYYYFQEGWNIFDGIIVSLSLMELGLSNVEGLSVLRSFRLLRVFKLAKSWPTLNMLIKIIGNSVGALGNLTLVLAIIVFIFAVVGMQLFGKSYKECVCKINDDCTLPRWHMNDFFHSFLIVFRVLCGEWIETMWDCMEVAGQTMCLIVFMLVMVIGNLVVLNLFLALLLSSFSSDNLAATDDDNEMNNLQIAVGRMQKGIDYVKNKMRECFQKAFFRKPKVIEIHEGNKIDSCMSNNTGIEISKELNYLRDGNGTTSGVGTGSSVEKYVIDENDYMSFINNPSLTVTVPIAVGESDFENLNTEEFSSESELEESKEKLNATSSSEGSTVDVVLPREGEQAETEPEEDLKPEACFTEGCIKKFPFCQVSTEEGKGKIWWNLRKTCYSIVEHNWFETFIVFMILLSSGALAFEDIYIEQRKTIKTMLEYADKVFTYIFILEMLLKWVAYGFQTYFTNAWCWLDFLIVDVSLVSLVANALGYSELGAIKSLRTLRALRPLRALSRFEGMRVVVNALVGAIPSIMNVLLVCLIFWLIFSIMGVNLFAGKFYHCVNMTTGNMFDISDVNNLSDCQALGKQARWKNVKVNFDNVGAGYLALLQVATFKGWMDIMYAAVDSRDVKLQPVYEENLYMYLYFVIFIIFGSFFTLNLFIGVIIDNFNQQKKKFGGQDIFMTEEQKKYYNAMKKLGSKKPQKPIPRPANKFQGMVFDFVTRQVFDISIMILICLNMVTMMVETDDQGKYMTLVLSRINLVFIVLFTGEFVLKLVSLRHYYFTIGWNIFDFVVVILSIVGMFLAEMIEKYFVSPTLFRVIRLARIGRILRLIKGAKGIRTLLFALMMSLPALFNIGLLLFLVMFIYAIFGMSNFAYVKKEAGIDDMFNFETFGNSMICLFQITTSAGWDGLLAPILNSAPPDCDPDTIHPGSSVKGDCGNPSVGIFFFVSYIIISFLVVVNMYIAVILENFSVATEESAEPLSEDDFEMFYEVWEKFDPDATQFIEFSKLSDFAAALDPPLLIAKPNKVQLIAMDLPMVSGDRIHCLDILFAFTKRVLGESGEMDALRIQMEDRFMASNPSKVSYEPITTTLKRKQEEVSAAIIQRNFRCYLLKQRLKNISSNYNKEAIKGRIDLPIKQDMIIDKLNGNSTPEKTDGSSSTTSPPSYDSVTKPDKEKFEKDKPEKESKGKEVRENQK

In the case of NC1=N[C@H](O)[C@H]2[C@H]3O[C@]4(O)O[C@@H]([C@@H](O)[C@@]2(N1)[C@@H]4O)[C@]3(O)CO [TTX, tetrodotoxin], the IC50 is given as 15 nM.
